Experimental data: ChEMBL document CHEMBL4673334, “In Vivo Biological Evaluation of a Synthetic Royleanone Derivative as a Promising Fast-Acting Trypanocidal Agent by Inducing Mitochondrial-Dependent Necrosis” (J Nat Prod, 2020)
Calls of active or inactive are those of the source. No cut-off for these calls is given here.

Columns and labels:
Vero = assay: Cytotoxicity against African green monkey Vero cells assessed as reduction in cell viability after 48 hrs by resazurin dye based assay; conditions: Chlorocebus sabaeus
Trypanosoma cruzi [1] = assay: Antitrypanosomal activity against Trypanosoma cruzi TINF/CH/1956/Tulahuen (DTU VI) epimastigote form assessed as parasite growth inhibition incubated for 48 hrs by resazurin dye based assay; format: functional, organism-based
Trypanosoma cruzi [2] = assay: Antitrypanosomal activity against Trypanosoma cruzi IRHOD/CO/2008/SN3 (DTU I) epimastigote form assessed as parasite growth inhibition incubated for 48 hrs by resazurin dye based assay; format: functional, organism-based
Trypanosoma cruzi [3] = assay: Antitrypanosomal activity against Trypanosoma cruzi MHOM/Pe/2011/Arequipa(DTU V) epimastigote form assessed as parasite growth inhibition incubated for 48 hrs by resazurin dye based assay; format: functional, organism-based
Trypanosoma cruzi [4] = assay: Inhibition of nucleic acid level in Trypanosoma cruzi MHOM/Pe/2011/Arequipa(DTU V) epimastigote form at IC25 concentration after 72 hrs by Rho (FITC-A) staining based flow cytometric analysis; format: functional
Trypanosoma cruzi [5] = assay: Inhibition of mitochondrial membrane potential in Trypanosoma cruzi MHOM/Pe/2011/Arequipa(DTU V) epimastigote form at IC25 concentration after 72 hrs by Rho (FITC-A) staining based flow cytometric analysis; format: functional
[6] = Toxicity in BALB/c mouse infected with Trypanosomal Trypanosoma cruzi MHOM/Pe/2011/Arequipa(DTU V) assessed as reduction in weight at 20 mg/kg, po administered for 5 days starting at 100 days post infection and measured up to 145 days post infection; format: organism-based; conditions: in vivo, 120 h, time 5 day
[7] = Toxicity in BALB/c mouse infected with Trypanosomal Trypanosoma cruzi MHOM/Pe/2011/Arequipa(DTU V) assessed as reduction in weight at 20 mg/kg, po administered for 5 days starting at 9 days post infection and measured up to 145 days post infection; format: organism-based; conditions: in vivo, 120 h, time 5 day
[8] = Toxicity in BALB/c mouse infected with Trypanosomal Trypanosoma cruzi MHOM/Pe/2011/Arequipa(DTU V) assessed as reduction in survival at 20 mg/kg, po administered for 5 days starting at 100 days post infection and measured up to 145 days post infection; format: organism-based; conditions: in vivo, 120 h, time 5 day
[9] = Toxicity in BALB/c mouse infected with Trypanosomal Trypanosoma cruzi MHOM/Pe/2011/Arequipa(DTU V) assessed as reduction in survival at 20 mg/kg, po administered for 5 days starting at 9 days post infection and measured up to 145 days post infection; format: organism-based; conditions: in vivo, 120 h, time 5 day
[10] = Toxicity in BALB/c mouse infected with Trypanosomal Trypanosoma cruzi MHOM/Pe/2011/Arequipa(DTU V) assessed as effect on ALP level at 20 mg/kg, po administered for 5 days starting at 100 days post infection and measured after 2 days post treatment; format: organism-based; conditions: in vivo, 120 h, time 5 day
[11] = Toxicity in BALB/c mouse infected with Trypanosomal Trypanosoma cruzi MHOM/Pe/2011/Arequipa(DTU V) assessed as effect on total bilirubin level at 20 mg/kg, po administered for 5 days starting at 100 days post infection and measured after 2 days post treatment; format: organism-based; conditions: in vivo, 120 h, time 5 day
[12] = Toxicity in BALB/c mouse infected with Trypanosomal Trypanosoma cruzi MHOM/Pe/2011/Arequipa(DTU V) assessed as effect on ALT/GPT level at 20 mg/kg, po administered for 5 days starting at 100 days post infection and measured after 2 days post treatment; format: organism-based; conditions: in vivo, 120 h, time 5 day
[13] = Toxicity in BALB/c mouse infected with Trypanosomal Trypanosoma cruzi MHOM/Pe/2011/Arequipa(DTU V) assessed as effect on […] level at 20 mg/kg, po administered for 5 days starting at 100 days post infection and measured after 2 days post treatment; format: organism-based; conditions: in vivo, 120 h, time 5 day
[14] = Toxicity in BALB/c mouse infected with Trypanosomal Trypanosoma cruzi MHOM/Pe/2011/Arequipa(DTU V) assessed as effect on LDH level at 20 mg/kg, po administered for 5 days starting at 100 days post infection and measured after 2 days post treatment; format: organism-based; conditions: in vivo, 120 h, time 5 day
[15] = Toxicity in BALB/c mouse infected with Trypanosomal Trypanosoma cruzi MHOM/Pe/2011/Arequipa(DTU V) assessed as effect on CK-MB level at 20 mg/kg, po administered for 5 days starting at 100 days post infection and measured after 2 days post treatment; format: organism-based; conditions: in vivo, 120 h, time 5 day
[16] = Toxicity in BALB/c mouse infected with Trypanosomal Trypanosoma cruzi MHOM/Pe/2011/Arequipa(DTU V) assessed as effect on uric acid level at 20 mg/kg, po administered for 5 days starting at 100 days post infection and measured after 2 days post treatment; format: organism-based; conditions: in vivo, 120 h, time 5 day
[17] = Toxicity in BALB/c mouse infected with Trypanosomal Trypanosoma cruzi MHOM/Pe/2011/Arequipa(DTU V) assessed as effect on urea level at 20 mg/kg, po administered for 5 days starting at 100 days post infection and measured after 2 days post treatment; format: organism-based; conditions: in vivo, 120 h, time 5 day
[18] = Toxicity in BALB/c mouse infected with Trypanosomal Trypanosoma cruzi MHOM/Pe/2011/Arequipa(DTU V) assessed as effect on ALP level at 20 mg/kg, po administered for 5 days starting at 9 days post infection and measured after 2 days post treatment; format: organism-based; conditions: in vivo, 120 h, time 5 day
[19] = Toxicity in BALB/c mouse infected with Trypanosomal Trypanosoma cruzi MHOM/Pe/2011/Arequipa(DTU V) assessed as effect on total bilirubin level at 20 mg/kg, po administered for 5 days starting at 9 days post infection and measured after 2 days post treatment; format: organism-based; conditions: in vivo, 120 h, time 5 day
[20] = Toxicity in BALB/c mouse infected with Trypanosomal Trypanosoma cruzi MHOM/Pe/2011/Arequipa(DTU V) assessed as effect on ALT/GPT level at 20 mg/kg, po administered for 5 days starting at 9 days post infection and measured after 2 days post treatment; format: organism-based; conditions: in vivo, 120 h, time 5 day
[21] = Toxicity in BALB/c mouse infected with Trypanosomal Trypanosoma cruzi MHOM/Pe/2011/Arequipa(DTU V) assessed as effect on AST/GOT level at 20 mg/kg, po administered for 5 days starting at 9 days post infection and measured after 2 days post treatment; format: organism-based; conditions: in vivo, 120 h, time 5 day
[22] = Toxicity in BALB/c mouse infected with Trypanosomal Trypanosoma cruzi MHOM/Pe/2011/Arequipa(DTU V) assessed as effect on LDH level at 20 mg/kg, po administered for 5 days starting at 9 days post infection and measured after 2 days post treatment; format: organism-based; conditions: in vivo, 120 h, time 5 day
[23] = Toxicity in BALB/c mouse infected with Trypanosomal Trypanosoma cruzi MHOM/Pe/2011/Arequipa(DTU V) assessed as effect on CK-MB level at 20 mg/kg, po administered for 5 days starting at 9 days post infection and measured after 2 days post treatment; format: organism-based; conditions: in vivo, 120 h, time 5 day
[24] = Toxicity in BALB/c mouse infected with Trypanosomal Trypanosoma cruzi MHOM/Pe/2011/Arequipa(DTU V) assessed as effect on uric acid level at 20 mg/kg, po administered for 5 days starting at 9 days post infection and measured after 2 days post treatment; format: organism-based; conditions: in vivo, 120 h, time 5 day
[25] = Toxicity in BALB/c mouse infected with Trypanosomal Trypanosoma cruzi MHOM/Pe/2011/Arequipa(DTU V) assessed as effect on urea level at 20 mg/kg, po administered for 5 days starting at 9 days post infection and measured after 2 days post treatment; format: organism-based; conditions: in vivo, 120 h, time 5 day
Trypanosoma cruzi [26] = assay: Antitrypanosomal activity against Trypanosoma cruzi MHOM/Pe/2011/Arequipa(DTU V) amastigote form infected in BALB/c mouse assessed as parasite free organ tissue ratio at 20 mg/kg, po administered for 5 days starting at 100 days post infection and measured up to 145 days post infection by PCR analysis relative to control; format: functional; conditions: time 5 day
Trypanosoma cruzi [27] = assay: Antitrypanosomal activity against Trypanosoma cruzi MHOM/Pe/2011/Arequipa(DTU V) amastigote form infected in BALB/c mouse assessed as parasite free organ tissue ratio at 20 mg/kg, po administered for 5 days starting at 9 days post infection and measured up to 145 days post infection by PCR analysis relative to control; format: functional; conditions: time 5 day
Trypanosoma cruzi [28] = assay: Antitrypanosomal activity against Trypanosoma cruzi MHOM/Pe/2011/Arequipa(DTU V) amastigote form infected in BALB/c mouse assessed as reactivation parasitaemia at 20 mg/kg, po administered for 5 days starting at 100 days post infection and measured up to 145 days post infection relative to control; format: functional; conditions: time 5 day
Trypanosoma cruzi [29] = assay: Antitrypanosomal activity against Trypanosoma cruzi MHOM/Pe/2011/Arequipa(DTU V) amastigote form infected in BALB/c mouse assessed as reactivation parasitaemia at 20 mg/kg, po administered for 5 days starting at 9 days post infection and measured up to 145 days post infection relative to control; format: functional; conditions: time 5 day
Trypanosoma cruzi [30] = assay: Antitrypanosomal activity against Trypanosoma cruzi MHOM/Pe/2011/Arequipa(DTU V) amastigote form infected in BALB/c mouse assessed as reduction in parasitaemia at 20 mg/kg, po for 5 days and measured after 55 days post infection; format: functional, organism-based; conditions: time 5.0 day
Trypanosoma cruzi [31] = assay: Antitrypanosomal activity against Trypanosoma cruzi MHOM/Pe/2011/Arequipa(DTU V) amastigote form infected in Vero cells assessed as parasite growth inhibition at 50 uM incubated for 72 hrs by Giemsa-staining based assay relative to control; format: functional

SMILES: CC(C)C1=CC2=C[C@@H]3OC(=O)[C@]4(C)CCC=C(C2=C(O)C1=O)[C@]34C
- IC50 (Vero): 222 µM
- IC50 (Trypanosoma cruzi [1]): 95.3 µM
- IC50 (Trypanosoma cruzi [2]): 110 µM
- IC50 (Trypanosoma cruzi [3]): 75.9 µM

SMILES: CC(C)C1=CC(=O)C2=C(C=C[C@H]3C(C)(C)CCC[C@]23C)C1=O
- IC50 (Vero): 26.1 µM
- IC50 (Trypanosoma cruzi [1]): 19.2 µM
- IC50 (Trypanosoma cruzi [2]): 13.5 µM
- IC50 (Trypanosoma cruzi [3]): 19 µM

SMILES: CC(C)c1cc2c(cc1O)[C@@]1(C)CCC[C@@]3(C)CO[C@@H]([C@@H]2O)[C@@H]31
- IC50 (Vero): 763 µM
- IC50 (Trypanosoma cruzi [1]): 34.6 µM
- IC50 (Trypanosoma cruzi [2]): 36.7 µM
- IC50 (Trypanosoma cruzi [3]): 31.1 µM

SMILES: CC(C)c1cc2c(cc1O)[C@@]1(C)CCCC(C)(C)[C@@]1(O)OC2=O
- IC50 (Vero): 480 µM
- IC50 (Trypanosoma cruzi [1]): 72.8 µM
- IC50 (Trypanosoma cruzi [2]): 91.2 µM
- IC50 (Trypanosoma cruzi [3]): 40.5 µM

SMILES: CC(C)c1cc2c(cc1O)[C@@]1(C)CCC[C@@]3(C)CO[C@@H](C2=O)[C@@H]31
- IC50 (Vero): 952 µM
- IC50 (Trypanosoma cruzi [1]): 62.8 µM
- IC50 (Trypanosoma cruzi [2]): 60.8 µM
- IC50 (Trypanosoma cruzi [3]): 51 µM

SMILES: CC(C)c1cc2c(cc1O)[C@@]1(C)CCC[C@@](C)(C=O)[C@@H]1CC2 [18-OXOFERRUGINOL]
- IC50 (Vero): 106 µM
- IC50 (Trypanosoma cruzi [1]): 48.7 µM
- IC50 (Trypanosoma cruzi [2]): 63 µM
- IC50 (Trypanosoma cruzi [3]): 59.5 µM

SMILES: O=C(Cn1ccnc1[N+](=O)[O-])NCc1ccccc1 [BENZNIDAZOLE]
- inhibition (Trypanosoma cruzi [4]): 22.4%
- inhibition (Trypanosoma cruzi [5]): 35.4%
- Activity [6]: Non-Toxic
- Activity [7]: Non-Toxic
- Activity [8]: Non-Toxic
- Activity [9]: Non-Toxic
- Activity [10]: Non-Toxic
- Activity [11]: Non-Toxic
- Activity [12]: Non-Toxic
- Activity [13]: Non-Toxic
- Activity [14]: Non-Toxic
- Activity [15]: Non-Toxic
- Activity [16]: Non-Toxic
- Activity [17]: Non-Toxic
- Activity [18]: Non-Toxic
- Activity [19]: Non-Toxic
- Activity [20]: Non-Toxic
- Activity [21]: Non-Toxic
- Activity [22]: Non-Toxic
- Activity [23]: Non-Toxic
- Activity [24]: Non-Toxic
- Activity [25]: Non-Toxic
- Activity (Trypanosoma cruzi [26]): 42.9%
- Activity (Trypanosoma cruzi [27]): 28.5%
- Activity (Trypanosoma cruzi [28]): 68.3%
- Activity (Trypanosoma cruzi [29]): 81.5%
- Activity (Trypanosoma cruzi [30]): Active
- inhibition at 50 µM (Trypanosoma cruzi [31]): 100%
- IC50 (Vero): 80.4 µM

SMILES: COC(=O)[C@]1(C)CCC[C@]2(C)c3ccc(C(C)C)c(O)c3CC[C@@H]12
- IC50 (Vero): 102 µM
- IC50 (Trypanosoma cruzi [1]): 71.2 µM
- IC50 (Trypanosoma cruzi [2]): 103 µM
- IC50 (Trypanosoma cruzi [3]): 75 µM
